Measurements reported in patent US10072017B2, “Compounds and methods for the treatment of cystic fibrosis” (Flatley Discovery Lab, LLC, priority 2015, dated 2018).

Target: T1, CFTR (Homo sapiens, UniProt P13569, DEL508-508)
T1 construct: Primary CF airway epithelial cells were obtained from the UNC Cystic Fibrosis Tissue Procurement and Cell Culture Core; host or cells: primary CF airway epithelial cells
Assay: Equivalent current assay in Primary CF airway epithelial cells (NAUC)
Format: cell-based
Details: 24 h, normalized to VX809 (3 μM) positive control; for Nauc @ 3 μM: 3 μM test compound; for Nauc @ 10 μM: 10 μM test compound
How it was run: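 NAUC is the area under the curve from forskolin (10 μM) plus VX770 (1 μM) addition to CFTR-172 (20 μM) block, after benzamil (5 μM). It is corrected for vehicle and scaled to 3 μM VX809 as 1.0 and DMSO as 0.0. Cells were exposed for 24 h to compounds with VX809; medians of ≥4 replicates were fitted sigmoidally.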

T1 sequence (P13569 with tags, fused parts or gaps DEL508-508): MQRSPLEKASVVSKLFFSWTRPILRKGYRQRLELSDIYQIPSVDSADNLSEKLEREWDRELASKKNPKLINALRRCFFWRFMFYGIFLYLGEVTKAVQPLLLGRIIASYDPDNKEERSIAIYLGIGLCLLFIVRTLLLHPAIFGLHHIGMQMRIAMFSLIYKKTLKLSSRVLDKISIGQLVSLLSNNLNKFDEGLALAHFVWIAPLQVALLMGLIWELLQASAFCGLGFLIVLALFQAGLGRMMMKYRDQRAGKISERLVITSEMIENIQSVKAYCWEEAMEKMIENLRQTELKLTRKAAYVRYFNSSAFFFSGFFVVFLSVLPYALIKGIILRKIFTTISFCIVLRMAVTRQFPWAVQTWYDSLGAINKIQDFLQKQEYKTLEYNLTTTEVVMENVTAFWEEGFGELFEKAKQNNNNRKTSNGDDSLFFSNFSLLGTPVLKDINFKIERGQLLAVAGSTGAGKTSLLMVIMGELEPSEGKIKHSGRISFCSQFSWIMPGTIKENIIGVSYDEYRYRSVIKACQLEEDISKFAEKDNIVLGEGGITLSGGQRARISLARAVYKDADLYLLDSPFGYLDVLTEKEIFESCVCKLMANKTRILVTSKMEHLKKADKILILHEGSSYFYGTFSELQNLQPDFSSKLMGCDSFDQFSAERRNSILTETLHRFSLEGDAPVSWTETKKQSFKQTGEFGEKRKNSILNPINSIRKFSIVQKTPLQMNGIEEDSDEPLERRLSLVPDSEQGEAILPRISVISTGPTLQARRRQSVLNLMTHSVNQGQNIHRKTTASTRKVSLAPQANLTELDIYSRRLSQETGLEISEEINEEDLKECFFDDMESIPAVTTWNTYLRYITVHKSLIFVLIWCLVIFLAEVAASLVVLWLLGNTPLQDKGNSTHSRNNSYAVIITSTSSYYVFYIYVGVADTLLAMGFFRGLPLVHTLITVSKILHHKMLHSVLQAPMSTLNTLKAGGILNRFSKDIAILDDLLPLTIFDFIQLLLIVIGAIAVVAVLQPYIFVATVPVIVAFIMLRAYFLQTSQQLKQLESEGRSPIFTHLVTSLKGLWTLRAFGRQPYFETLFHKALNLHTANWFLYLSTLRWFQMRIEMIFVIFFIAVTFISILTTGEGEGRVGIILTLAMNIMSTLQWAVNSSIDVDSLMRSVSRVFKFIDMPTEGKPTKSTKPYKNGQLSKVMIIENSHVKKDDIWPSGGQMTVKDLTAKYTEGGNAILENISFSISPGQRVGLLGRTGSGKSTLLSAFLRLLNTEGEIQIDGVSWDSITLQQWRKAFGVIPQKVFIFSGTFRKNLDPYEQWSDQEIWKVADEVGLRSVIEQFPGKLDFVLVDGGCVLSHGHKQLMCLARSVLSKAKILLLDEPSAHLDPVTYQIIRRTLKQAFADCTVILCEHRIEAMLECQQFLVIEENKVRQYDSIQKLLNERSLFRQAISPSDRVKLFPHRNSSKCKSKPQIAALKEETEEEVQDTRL

SMILES | Nauc @ 3 μM | Nauc @ 10 μM
[2H]C12C(=O)N(c3cc(Cl)c(OC)c(Cl)c3)C(=O)C1([2H])C1(C(=O)Nc3c(Cl)cc(Cl)cc31)N1C[C@@H](Cl)CC12 (stereo partly drawn) [Example 148] | +++ (NAUC “+++” refers to an observed NAUC >170% of positive control) | +++ (NAUC “+++” refers to an observed NAUC >170% of positive control)
O=C1C2C3C[C@H](Cl)CN3C3(C(=O)Nc4c(Cl)cc(Cl)cc43)C2C(=O)N1c1cc(Cl)cc(Cl)c1O (stereo partly drawn) [Example 96] | ++ (NAUC “++” refers to an observed NAUC 170-140% of positive control) | + (NAUC “+” refers to an observed NAUC <140% of positive control)
O=C1C2C3CCCN3C3(C(=O)Nc4c(Cl)cc(Cl)cc43)C2C(=O)N1c1cccc(C(F)(F)F)c1 (stereo not drawn) [Example 15] | ++ (NAUC “++” refers to an observed NAUC 170-140% of positive control) | +++ (NAUC “+++” refers to an observed NAUC >170% of positive control)
Nc1ccc(CC2NC3(C(=O)Nc4c(Cl)cc(Cl)cc43)C3C(=O)N(c4cc(Cl)cc(Cl)c4)C(=O)C23)cc1 (stereo not drawn) [Example 207] | ++ (NAUC “++” refers to an observed NAUC 170-140% of positive control) | + (NAUC “+” refers to an observed NAUC <140% of positive control)
C[C@]1(O)CC2C3C(=O)N(c4cc(Cl)cc(Cl)c4)C(=O)C3C3(C(=O)Nc4c(Cl)cc(Cl)cc43)N2C1 (stereo partly drawn) [Example 156] | ++ (NAUC “++” refers to an observed NAUC 170-140% of positive control) | +++ (NAUC “+++” refers to an observed NAUC >170% of positive control)
N#Cc1cc(Cl)cc(N2C(=O)C3C4CCCN4C4(C(=O)Nc5c(Cl)cc(Cl)cc54)C3C2=O)c1 (stereo not drawn) [Example 31] | + (NAUC “+” refers to an observed NAUC <140% of positive control) | +++ (NAUC “+++” refers to an observed NAUC >170% of positive control)
O=C1C2C(c3ccccn3)NC3(C(=O)Nc4c(Cl)cc(Cl)cc43)C2C(=O)N1c1cc(Cl)cc(Cl)c1 (stereo not drawn) [Example 212] | + (NAUC “+” refers to an observed NAUC <140% of positive control) | ++ (NAUC “++” refers to an observed NAUC 170-140% of positive control)
C[C@@]1(F)CC2C3C(=O)N(c4cc(Cl)cc(Cl)c4)C(=O)C3C3(C(=O)Nc4c(Cl)cc(Cl)cc43)N2C1 (single isomer, unassigned) [Example 161] | +++ (NAUC “+++” refers to an observed NAUC >170% of positive control) | +++ (NAUC “+++” refers to an observed NAUC >170% of positive control)
COc1cccc(N2C(=O)C3C4CCCN4C4(C(=O)Nc5c(Cl)cc(Cl)cc54)C3C2=O)c1 (stereo not drawn) [Example 97] | + (NAUC “+” refers to an observed NAUC <140% of positive control) | ++ (NAUC “++” refers to an observed NAUC 170-140% of positive control)
O=C1C2C3CCCN3C3(C(=O)Nc4c(Cl)cc(Cl)cc43)C2C(=O)N1c1cc(F)cc(F)c1 (stereo not drawn) [Example 21] | ++ (NAUC “++” refers to an observed NAUC 170-140% of positive control) | ++ (NAUC “++” refers to an observed NAUC 170-140% of positive control)
O=C1C2C3CCCN3C3(C(=O)Nc4c(Cl)cc(Cl)cc43)C2C(=O)N1c1cc(Cl)c(OC(F)F)c(Cl)c1 (single isomer, unassigned) [Example 250] | +++ (NAUC “+++” refers to an observed NAUC >170% of positive control) | +++ (NAUC “+++” refers to an observed NAUC >170% of positive control)
Cc1cccc(CC2NC3(C(=O)Nc4c(Cl)cc(Cl)cc43)C3C(=O)N(c4cc(Cl)cc(Cl)c4)C(=O)C23)n1 (stereo not drawn) [Example 238] | + (NAUC “+” refers to an observed NAUC <140% of positive control) | ++ (NAUC “++” refers to an observed NAUC 170-140% of positive control)
CC(C)C1NC2(C(=O)Nc3c(Cl)cc(Cl)cc32)C2C(=O)N(c3cc(Cl)cc(Cl)c3)C(=O)C12 (stereo not drawn) [Example 17] | + (NAUC “+” refers to an observed NAUC <140% of positive control) | ++ (NAUC “++” refers to an observed NAUC 170-140% of positive control)
N#C[C@H]1CC2C3C(=O)N(c4cc(Cl)cc(Cl)c4)C(=O)C3C3(C(=O)Nc4c(Cl)cc(Cl)cc43)N2C1 (stereo partly drawn) [Example 68] | + (NAUC “+” refers to an observed NAUC <140% of positive control) | +++ (NAUC “+++” refers to an observed NAUC >170% of positive control)
COc1cc(Cl)cc(N2C(=O)C3C4CC(C(F)F)CN4C4(C(=O)Nc5c(Cl)cc(Cl)cc54)C3C2=O)c1 (stereo not drawn) [Example 130] | + (NAUC “+” refers to an observed NAUC <140% of positive control) | ++ (NAUC “++” refers to an observed NAUC 170-140% of positive control)
COc1c(Cl)cc(N2C(=O)C3C4C[C@H](Cl)CN4C4(C(=O)Nc5c(Cl)cc(Cl)cc54)C3C2=O)cc1Cl (single isomer, unassigned) [Example 114] | +++ (NAUC “+++” refers to an observed NAUC >170% of positive control) | +++ (NAUC “+++” refers to an observed NAUC >170% of positive control)
[2H]C12C(=O)N(c3cc(Cl)cc(Cl)c3)C(=O)C1([2H])C1(C(=O)Nc3c(Cl)cc(Cl)cc31)N1CC(C)(C)CC12 (stereo not drawn) [Example 147] | +++ (NAUC “+++” refers to an observed NAUC >170% of positive control) | +++ (NAUC “+++” refers to an observed NAUC >170% of positive control)
COc1c(Cl)cc(N2C(=O)C3C4C[C@](C)(O)CN4C4(C(=O)Nc5c(Cl)cc(Cl)cc54)C3C2=O)cc1Cl (stereo partly drawn) [Example 159] | +++ (NAUC “+++” refers to an observed NAUC >170% of positive control) | +++ (NAUC “+++” refers to an observed NAUC >170% of positive control)
COc1cc(Cl)cc(N2C(=O)C3C4C[C@](C)(F)CN4C4(C(=O)Nc5c(Cl)cc(Cl)cc54)C3C2=O)c1 (stereo partly drawn) [Example 160] | + (NAUC “+” refers to an observed NAUC <140% of positive control) | ++ (NAUC “++” refers to an observed NAUC 170-140% of positive control)
COc1cc(Cl)cc(N2C(=O)C3C4C[C@H](F)CN4C4(C(=O)Nc5c(Cl)cc(Cl)cc54)C3C2=O)c1 (single isomer, unassigned) [Example 110] | +++ (NAUC “+++” refers to an observed NAUC >170% of positive control) | +++ (NAUC “+++” refers to an observed NAUC >170% of positive control)
O=C1C2C3CCCN3C3(C(=O)Nc4c(Cl)cc(Cl)cc43)C2C(=O)N1c1ncc(Cl)s1 (stereo not drawn) [Example 229] | + (NAUC “+” refers to an observed NAUC <140% of positive control) | ++ (NAUC “++” refers to an observed NAUC 170-140% of positive control)
[2H]C12C(=O)N(c3cc(Cl)cc(Cl)c3)C(=O)C1([2H])C1(C(=O)Nc3c(Cl)cc(Cl)cc31)N1CCCC12 (single isomer, unassigned) [Example 70] | +++ (NAUC “+++” refers to an observed NAUC >170% of positive control) | +++ (NAUC “+++” refers to an observed NAUC >170% of positive control)
[2H]C([2H])([2H])C1(C([2H])([2H])[2H])CC2C3C(=O)N(c4cc(Cl)c(OC)c(Cl)c4)C(=O)C3C3(C(=O)Nc4c(Cl)cc(Cl)cc43)N2C1 (stereo not drawn) [Example 214] | +++ (NAUC “+++” refers to an observed NAUC >170% of positive control) | +++ (NAUC “+++” refers to an observed NAUC >170% of positive control)
O=C1C2C3C[C@H](O)CN3C3(C(=O)Nc4c(Cl)cc(Cl)cc43)C2C(=O)N1c1cc(Cl)c(O)c(Cl)c1 (stereo partly drawn) [Example 82] | + (NAUC “+” refers to an observed NAUC <140% of positive control) | ++ (NAUC “++” refers to an observed NAUC 170-140% of positive control)
COc1cc(Cl)cc(N2C(=O)C3C4CCCN4C4(C(=O)Nc5c(Cl)cc(Cl)cc54)C3C2=O)c1 (single isomer, unassigned) [Example 106] | +++ (NAUC “+++” refers to an observed NAUC >170% of positive control) | +++ (NAUC “+++” refers to an observed NAUC >170% of positive control)
O=C1C2C3C[C@H](O)CN3C3(C(=O)Nc4c(Cl)cc(Cl)cc43)C2C(=O)N1c1cc(Cl)cc(Cl)n1 (stereo partly drawn) [Example 59] | + (NAUC “+” refers to an observed NAUC <140% of positive control) | +++ (NAUC “+++” refers to an observed NAUC >170% of positive control)
N=C(N)NCCCC1NC2(C(=O)Nc3c(Cl)cc(Cl)cc32)C2C(=O)N(c3cc(Cl)cc(Cl)c3)C(=O)C12 (stereo not drawn) [Example 163] | ++ (NAUC “++” refers to an observed NAUC 170-140% of positive control) | + (NAUC “+” refers to an observed NAUC <140% of positive control)
COc1c(Cl)cc(N2C(=O)C3C4C[C@@](C)(F)CN4C4(C(=O)Nc5c(Cl)cc(Cl)cc54)C3C2=O)cc1Cl (single isomer, unassigned) [Example 162] | + (NAUC “+” refers to an observed NAUC <140% of positive control) | ++ (NAUC “++” refers to an observed NAUC 170-140% of positive control)
O=C1C2C3CCCN3C3(C(=O)Nc4c(C(F)(F)F)cccc43)C2C(=O)N1c1cc(Cl)cc(Cl)c1 (stereo not drawn) [Example 18] | ++ (NAUC “++” refers to an observed NAUC 170-140% of positive control) | + (NAUC “+” refers to an observed NAUC <140% of positive control)
O=C1C2C3CCCN3C3(C(=O)Nc4c(Cl)cc(Cl)cc43)C2C(=O)N1c1cccc(C(F)(F)F)n1 (stereo not drawn) [Example 251] | +++ (NAUC “+++” refers to an observed NAUC >170% of positive control) | +++ (NAUC “+++” refers to an observed NAUC >170% of positive control)
